Test results as given in patent US20250230165A1, “HETEROCYCLIC COMPOUNDS FOR USE IN THE TREATMENT OF CANCER” (ARTIOS PHARMA LIMITED, priority 2021, published 2025).

What follows are compounds tested against T1, Human Polθ polymerase domain (aa1820-2590) (Homo sapiens, UniProt O75417) (assay: Polθ Polymerase Domain Kinact/KI Assay (PicoGreen)). Conditions: 0.8 nM Polθ, 100 nM DNA substrate, kobs vs [I] fit for 2-step covalent inhibitor.
T1 construct: Human Polθ polymerase domain (aa1820-2590) was expressed in E. coli; made in house; host or cells: E. coli
T1 sequence (O75417 1820-2590): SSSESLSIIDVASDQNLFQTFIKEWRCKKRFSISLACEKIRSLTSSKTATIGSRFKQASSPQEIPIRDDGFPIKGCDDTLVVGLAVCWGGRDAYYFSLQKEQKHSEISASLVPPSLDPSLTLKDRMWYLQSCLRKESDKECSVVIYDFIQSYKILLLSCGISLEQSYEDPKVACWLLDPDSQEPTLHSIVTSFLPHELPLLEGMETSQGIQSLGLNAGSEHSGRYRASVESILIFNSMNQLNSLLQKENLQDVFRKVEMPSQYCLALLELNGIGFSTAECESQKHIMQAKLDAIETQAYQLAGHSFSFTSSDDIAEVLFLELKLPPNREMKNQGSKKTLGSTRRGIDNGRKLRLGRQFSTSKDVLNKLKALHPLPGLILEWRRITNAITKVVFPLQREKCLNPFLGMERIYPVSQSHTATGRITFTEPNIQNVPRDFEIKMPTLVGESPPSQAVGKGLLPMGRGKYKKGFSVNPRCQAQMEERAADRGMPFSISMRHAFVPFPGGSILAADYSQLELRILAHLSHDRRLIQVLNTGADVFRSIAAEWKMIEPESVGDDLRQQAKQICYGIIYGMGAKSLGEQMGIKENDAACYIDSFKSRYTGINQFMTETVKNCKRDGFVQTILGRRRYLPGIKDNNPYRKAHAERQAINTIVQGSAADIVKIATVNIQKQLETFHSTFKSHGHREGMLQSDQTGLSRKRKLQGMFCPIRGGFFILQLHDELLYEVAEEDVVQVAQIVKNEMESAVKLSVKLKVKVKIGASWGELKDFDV
Format: biochemical
Outline: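 Time-dependent inhibition was followed by quenching reactions with EDTA at points up to 60 min, then staining product DNA with PicoGreen fluorescence. Reactions held 0.8 nM E. coli-expressed Polθ, 100 nM primed DNA substrate and […] at pH 7.5, 1% DMSO. kobs versus inhibitor concentration gave Kinact and KI.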

SMILES | Kinact/Kl
C=CC(=O)N1CC(N2CCC(CN3C[C@H]4CC(=O)N(c5cc(C(F)(F)F)cc(C)n5)[C@@H]4C(=O)N(C)c4cccc(Cl)c43)CC2)C1 [Example 92, (3aR,11aS)-5-((1-(1-acryloylazetidin-3-yl)piperidin-4-yl)methyl)-6-chloro-10-methyl-1-(6-methyl-4-(trifluoromethyl)pyridin-2-yl)-1,3a,4,5,10,11a-hexahydro-2H-benzo[b]pyrrolo[2,3-f][1,4]diazocine-2,11(3H)-dione] | 2.56e+06 M⁻¹ s⁻¹
Cc1cc(C(F)(F)F)cc(N2C(=O)C[C@@H]3CN(Cc4ccc(NC(=O)C5=CCCNC5)cc4)c4c(C)cccc4N(C)C(=O)[C@H]32)n1 [Example 88, N-(4-(((3aR,11aS)-6,10-dimethyl-1-(6-methyl-4-(trifluoromethyl)pyridin-2-yl)-2,11-dioxo-1,2,3,3a,4,10,11,11a-octahydro-5H-benzo[b]pyrrolo[2,3-f][1,4]diazocin-5-yl)methyl)phenyl)-1,2,5,6-tetrahydropyridine-3-carboxamide] | 4.75e+06 M⁻¹ s⁻¹
C=CC(=O)N1CCc2cc(CN3C[C@H]4CC(=O)N(c5cc(C(F)(F)F)cc(C)n5)[C@@H]4C(=O)N(C)c4cccc(F)c43)ccc2C1 [Example 131, (3aR,11aS)-5-((2-acryloyl-1,2,3,4-tetrahydoisoquinolin-6-yl)methyl)-6-fluoro-10-methyl-1-(6-methyl-4-(trifluoromethyl)pyridin-2-yl)-1,3a,4,5,10,11a-hexahydro-2H-benzo[b]pyrrolo[2,3-f][1,4]diazocine-2,11(3H)-dione] | 530000 M⁻¹ s⁻¹
C=CC(=O)N1CC2(CN(CCN3C[C@H]4CC(=O)N(c5cc(C(F)(F)F)cc(C)n5)[C@@H]4C(=O)N(C)c4cccc(F)c43)C[C@@H](COC)N2)C1 [Example 6, (3aR,11aS)-5-(2-((S)-2-acryloyl-6-(methoxymethyl)-2,5,8-triazaspiro[3.5]nonan-8-yl)ethyl)-6-fluoro-10-methyl-1-(6-methyl-4-(trifluoromethyl)pyridin-2-yl)-1,3a,4,5,10,11a-hexahydro-2H-benzo[b]pyrrolo[2,3-f][1,4]diazocine-2,11(3H)-dione] | 540000 M⁻¹ s⁻¹
C=CC(=O)NCC12CC(CN3C[C@H]4CC(=O)N(c5cc(C(F)(F)F)cc(C)n5)[C@@H]4C(=O)N(C)c4cccc(C)c43)(C1)C2 [Example 175, N-((3-(((3aR,11aS)-6,10-dimethyl-1-(6-methyl-4-(tri-fluoromethyl)pyr-idin-2-yl)-2,11-dioxo-1,2,3,3a,4, 10,11,11a-octa-hydro-5H-benzo [b]pyrrolo[2,3-f] [1,4]diazocin-5-yl)methyl)bicyclo [1.1.1]pentan-1-yl)-methyl)acrylamide] | 370000 M⁻¹ s⁻¹
C/C=C(\CN(C)C)C(=O)N1CC(c2ccc(CN3C[C@H]4CC(=O)N(c5cc(C(F)(F)F)cc(C)n5)[C@@H]4C(=O)N(C)c4cccc(C)c43)cc2)C1 [Example 195, (3aR,11aS)-5-(4-(1-((E)-2-((dimeth-ylamino)methyl)-but-2-enoyl)azeti-din-3-yl)benzyl)-6,10-dimethyl-1-(6-methyl-4-(tri-fluoromethyl)pyr-idin-2-yl)-1,3a,4,5,10,11a-hexa-hydro-2H-benzo [b]pyrrolo[2,3-f] [1,4]diazocine-2,11(3H)-dione] | 5.22e+06 M⁻¹ s⁻¹

Next, values leading:

Kinact/Kl | SMILES
1.48e+06 M⁻¹ s⁻¹ | C=CC(=O)N1Cc2ncc(CN3C[C@H]4CC(=O)N(c5cc(C(F)(F)F)cc(C)n5)[C@@H]4C(=O)N(C)c4cccc(Cl)c43)cc2[C@@H]1CC#N (racemic) [Example 291b, 2-((S/R)-6-acryloyl-3-(((3aR,11aS)-6-chloro-10-methyl-1-(6-methyl-4-(trifluoromethyl)pyridin-2-yl)-2,11-dioxo-1,2,3,3a,4,10,11,11a-octahydro-5H-benzo[b]pyrrolo[2,3-f][1,4]diazocin-5-yl)methyl)-6,7-dihydro-5H-pyrrolo[3,4-b]pyridin-5-yl)acetonitrile]
1e+06 M⁻¹ s⁻¹ | C=CC(=O)N1Cc2nc(CN3C[C@H]4CC(=O)N(c5cc(C(F)(F)F)cc(C)n5)[C@@H]4C(=O)N(C)c4cccc(Cl)c43)cn2CC1C (single isomer, unassigned) [Example 143a]
